Source: PubChem BioAssay (NCI)
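A five-concentration, 48-hour dose response in 96-well plates underlies each endpoint, interpolated linearly between surrounding concentrations. TGI: concentration producing complete growth inhibition.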

Legend:
Assay in all cases: inhibition of tumour cell growth, NCI panel, 48 h
LOX IMVI melanoma = test system: LOX IMVI melanoma
HT29 colon = test system: HT29 colon
UACC-62 melanoma = test system: UACC-62 melanoma
SK-MEL-5 melanoma = test system: SK-MEL-5 melanoma
786-0 renal = test system: 786-0 renal
NCI-H23 lung = test system: NCI-H23 lung
OVCAR-4 ovarian = test system: OVCAR-4 ovarian
TK-10 renal = test system: TK-10 renal
CAKI-1 renal = test system: CAKI-1 renal
BT-549 breast = test system: BT-549 breast
MOLT-4 leukemia = test system: MOLT-4 leukemia
IGROV1 ovarian = test system: IGROV1 ovarian
SN12C renal = test system: SN12C renal
NCI/ADR-RES ovarian = test system: NCI/ADR-RES ovarian
RPMI-8226 leukemia = test system: RPMI-8226 leukemia
HL-60(TB) leukemia = test system: HL-60(TB) leukemia
SK-MEL-2 melanoma = test system: SK-MEL-2 melanoma
RXF 393 renal = test system: RXF 393 renal
DU-145 prostate = test system: DU-145 prostate
UACC-257 melanoma = test system: UACC-257 melanoma
SNB-19 CNS = test system: SNB-19 CNS
SF-268 CNS = test system: SF-268 CNS
OVCAR-8 ovarian = test system: OVCAR-8 ovarian
U251 CNS = test system: U251 CNS
NCI-H460 lung = test system: NCI-H460 lung
K-562 leukemia = test system: K-562 leukemia
SNB-75 CNS = test system: SNB-75 CNS
UO-31 renal = test system: UO-31 renal
MDA-MB-231 breast = test system: MDA-MB-231 breast
HS 578T breast = test system: HS 578T breast
SW-620 colon = test system: SW-620 colon
HCT-116 colon = test system: HCT-116 colon
SK-MEL-28 melanoma = test system: SK-MEL-28 melanoma
SF-295 CNS = test system: SF-295 CNS
HCT-15 colon = test system: HCT-15 colon
SF-539 CNS = test system: SF-539 CNS
HOP-62 NSCLC = test system: HOP-62 NSCLC
A549 NSCLC = test system: A549 NSCLC
HCC-2998 colon = test system: HCC-2998 colon
M14 melanoma = test system: M14 melanoma
SK-OV-3 ovarian = test system: SK-OV-3 ovarian
KM12 colon = test system: KM12 colon
NCI-H226 lung = test system: NCI-H226 lung
T-47D breast = test system: T-47D breast
COLO 205 colon = test system: COLO 205 colon
EKVX NSCLC = test system: EKVX NSCLC
HOP-92 NSCLC = test system: HOP-92 NSCLC
ACHN renal = test system: ACHN renal
NCI-H522 lung = test system: NCI-H522 lung
SR leukemia = test system: SR leukemia
MDA-MB-435 = test system: MDA-MB-435
PC-3 prostate = test system: PC-3 prostate
MCF7 breast = test system: MCF7 breast
OVCAR-3 ovarian = test system: OVCAR-3 ovarian
CCRF-CEM leukemia = test system: CCRF-CEM leukemia
A498 renal = test system: A498 renal
OVCAR-5 ovarian = test system: OVCAR-5 ovarian
MALME-3M melanoma = test system: MALME-3M melanoma

Measured: TGI

O=C1OC(C(O)C(O)C(O)CO)C(O)C1O (stereo not drawn)
> 100 µM: all assays above
